Measured values reported in patent US20250025443A1, “COMPOUNDS AND METHODS FOR TREATING CORONA VIRUSES” (CLEAR CREEK BIO, INC., priority 2021, published 2025).

The molecules below were run against SARS-CoV-2 Papain-Like Protease (PLpro) (Severe acute respiratory syndrome coronavirus 2 (2019-nCoV) (SARS-CoV-2), UniProt P0DTD1) (assay: biochemical). Conditions: PLpro enzymatic fluorescence assay; class symbols; read-out: PLpro IC50.
With `Cc1ccc([N+](=O)[O-])cc1C(=O)N[C@H](C)c1cccc2ccccc12` [Compound 104, (R)-2-Methyl-N-(1-(naphthalen-1-yl)ethyl)-5-nitrobenzamide] the IC50 was > 5000 nM. With `Cc1ccc(N2C[C@@H](C)N[C@@H](C)C2)cc1C(=O)NC1(c2cccc3ccccc23)CC1` [Compound 506, 5-((3S,5R)-3,5-Dimethylpiperazin-1-yl)-2-methyl-N-(1-(naphthalen-1-yl)cyclopropyl)benzamide] the IC50 was < 100 nM. In the case of `Cc1ccc(OC[C@@H](C)N)cc1C(=O)NC1(c2cc(Br)cc3ccccc23)CC1` [Compound 540, (R)-5-(2-Aminopropoxy)-N-(1-(3-bromonaphthalen-1-yl)cyclopropyl)-2-methylbenzamide], the IC50 is reported as < 100 nM. For `Cc1ccc(OC[C@@H]2CCN2C)cc1C(=O)NC1(c2cc(-c3cnn(C)c3)cc3ncccc23)CC1` [Compound 670, (S)-2-Methyl-N-(1-(7-(1-methyl-1H-pyrazol-4-yl)quinolin-5-yl)cyclopropyl)-5-((1-methylazetidin-2-yl)methoxy)benzamide], the IC50 was < 100 nM. For `Cc1cc(-c2cc(C3(NC(=O)c4cc(OC[C@@H]5CCN5C)ccc4C)CC3)c3cccnc3c2)n[nH]1` [Compound 651, (S)-2-Methyl-N-(1-(7-(5-methyl-1H-pyrazol-3-yl)quinolin-5-yl)cyclopropyl)-5-((1-methylazetidin-2-yl)methoxy)benzamide], the IC50 was < 100 nM. `Cc1ccc(NC2CN(C(=O)OC(C)(C)C)C2)cc1C(=O)NC(C)c1cccc2c1CCCC2` (stereo not shown) [Compound 181] was tested, and the IC50 was > 5000 nM. For `C=C(C)c1cc(C2(NC(=O)c3cc(OCCNC)ccc3C)CC2)c2cccnc2c1` [Compound 616, 2-Methyl-5-(2-(methylamino)ethoxy)-N-(1-(7-(prop-1-en-2-yl)quinolin-5-yl)cyclopropyl)benzamide], the IC50 was < 100 nM. `Cc1cc(C2(NC(=O)c3cc(OC[C@@H]4CCN4C)ccc3C)CC2)c2ccc(C)nc2c1` [Compound 802, (S)-N-(1-(2,7-Dimethylquinolin-5-yl)cyclopropyl)-2-methyl-5-((1-methylazetidin-2-yl)methoxy)benzamide] was tested, and the IC50 was < 100 nM. In the case of `Cc1ccc(OC[C@@H]2CCN2)cc1C(=O)NC1(c2cc(-c3ncco3)cc3ncccc23)CC1` [Compound 694, (S)-5-(Azetidin-2-ylmethoxy)-2-methyl-N-(1-(7-(oxazol-2-yl)quinolin-5-yl)cyclopropyl)benzamide], the IC50 is reported as < 100 nM. `COc1cc(C2(NC(=O)c3cc(OC[C@H](C)N)ccc3C)CC2)c2ccncc2c1` [Compound 536, (S)-5-(2-Aminopropoxy)-N-(1-(7-methoxyisoquinolin-5-yl)cyclopropyl)-2-methylbenzamide] was tested, and the IC50 was < 100 nM.

Same assay, conditions: SARS-CoV-2 PLpro enzymatic fluorescence assay; read-out: PLpro IC50
With `Cc1ccc(OCC2CCN2C)cc1C(=O)NC1(c2cccc3ccccc23)COC1` (stereo not shown) [Compound 387, 2-Methyl-5-((1-methylazetidin-2-yl)methoxy)-N-(3-(naphthalen-1-yl)oxetan-3-yl)benzamide] the IC50 was < 100 nM. For `Cc1ccc(OCCN(C)C)cc1C(=O)N[C@H](C)c1cccc2ccccc12` [Compound 160, (R)-5-(2-(Dimethylamino)ethoxy)-2-methyl-N-(1-(naphthalen-1-yl)ethyl)benzamide], the IC50 was 100 to 1000 nM. With `Cc1cc2sc(CN)nc2cc1C(=O)NC1(c2cccc3ccccc23)CC1` [Compound 245, 2-(Aminomethyl)-6-methyl-N-(1-(naphthalen-1-yl)cyclopropyl)benzo[d]thiazole-5-carboxamide] the IC50 was < 100 nM. `Cc1ccc(N)cc1C(=O)NC(CF)c1cccc2ccccc12` (stereo not shown) [Compound 200, 5-Amino-N-(2-fluoro-1-(naphthalen-1-yl)ethyl)-2-methylbenzamide] gave an IC50 of 1000 to 5000 nM. For `Cc1ccc(NC2CNC2)cc1C(=O)NC1(c2cccc(-c3cccs3)c2)CC1` [Compound 169, 5-(Azetidin-3-ylamino)-2-methyl-N-(1-(3-(thiophen-2-yl)phenyl)cyclopropyl)benzamide], the IC50 was 100 to 1000 nM. In the case of `COC(=O)CCc1ccc(C)c(C(=O)NC2(c3cccc4ccccc34)CC2)c1` [Compound 431, Methyl 3-(4-methyl-3-((1-(naphthalen-1-yl)cyclopropyl)carbamoyl)phenyl) propanoate], the IC50 is reported as 100 to 1000 nM. With `Cc1cc2cccnc2cc1C(=O)N[C@H](C)c1cccc2ccccc12` [Compound 150, (R)-6-Methyl-N-(1-(naphthalen-1-yl)ethyl)quinoline-7-carboxamide] the IC50 was 1000 to 5000 nM. In the case of `COc1ccc(C2(NC(=O)c3cc(OCCN(C)C)ccc3C)CC2)cc1` [Compound 271, 5-(2-(Dimethylamino)ethoxy)-N-(1-(4-methoxyphenyl)cyclopropyl)-2-methylbenzamide], the IC50 is reported as > 5000 nM. `Cc1cc2c(cc1C(=O)NC1(c3cccc4ccccc34)CC1)N(C)CC2` [Compound 210, 1,5-Dimethyl-N-(1-(naphthalen-1-yl)cyclopropyl)indoline-6-carboxamide] gave an IC50 of 100 to 1000 nM. `CC(=O)N(c1ccc(C)c(C(=O)N[C@H](C)c2cccc3ccccc23)c1)C(CN)CO` (stereo partly drawn) [Compound 165, 5-(N-(1-Amino-3-hydroxypropan-2-yl)acetamido)-2-methyl-N-((R)-1-(naphthalen-1-yl)ethyl)benzamide] was tested, and the IC50 was > 5000 nM. In the case of `Cc1ccc([N+](=O)[O-])cc1C(=O)NC(c1cccc2ccccc12)C1CCOCC1` (stereo not shown) [Compound 105, 2-Methyl-N-(naphthalen-1-yl(tetrahydro-2H-pyran-4-yl)methyl)-5-nitrobenzamide], the IC50 is reported as > 5000 nM. For `CCS(=O)(=O)N1CCC([C@@H](C)NC(=O)c2cc(NC3CN(C(=O)OC(C)(C)C)C3)ccc2C)CC1` [Compound 161, tert-Butyl (R)-3-((3-((1-(1-(ethylsulfonyl)piperidin-4-yl)ethyl)carbamoyl)-4-methylphenyl)amino)azetidine-1-carboxylate], the IC50 was > 5000 nM. `CNCCOc1ccc(C)c(C(=O)NC2(c3cccc4ncccc34)CC2)c1` [Compound 385, 2-Methyl-5-(2-(methylamino)ethoxy)-N-(1-(quinolin-5-yl)cyclopropyl)benzamide] was tested, and the IC50 was < 100 nM. `Cc1ncc(OCCN(C)C)cc1C(=O)NC1(c2cccc3ccccc23)CC1` [Compound 275, 5-(2-(Dimethylamino)ethoxy)-2-methyl-N-(1-(naphthalen-1-yl)cyclopropyl)nicotinamide] showed an IC50 of 1000 to 5000 nM. For `Cc1ccc(OC[C@@H]2CCN2)cc1C(=O)NC1(c2cccc3cc(F)ccc23)CC1` [Compound 392, (S)-5-(Azetidin-2-ylmethoxy)-N-(1-(6-fluoronaphthalen-1-yl)cyclopropyl)-2-methylbenzamide], the IC50 was < 100 nM. `Cc1ccc(Nc2cnn(C)c2)cc1C(=O)N[C@H](C)c1cccc(-c2ccc(CN[C@H]3CC[C@@H](O)C3)s2)c1` [Compound 137, N-((R)-1-(3-(5-((((1S,3R)-3-Hydroxycyclopentyl)amino)methyl)thiophen-2-yl)phenyl)ethyl)-2-methyl-5-((1-methyl-1H-pyrazol-4-yl)amino)benzamide] showed an IC50 of 1000 to 5000 nM. `Cc1ccc(OCCNCC(F)(F)F)cc1C(=O)NC1(c2cccc3ccccc23)CC1` [Compound 247, 2-Methyl-N-(1-(naphthalen-1-yl)cyclopropyl)-5-(2-((2,2,2-trifluoroethyl)amino)ethoxy)benzamide] was tested, and the IC50 was 100 to 1000 nM. With “2-Methyl-5-((2-methylazetidin-2-yl)methoxy)-N-(1-(naphthalen-1-yl)cyclopropyl)benzamide [Compound 394]” the IC50 was < 100 nM.
